Assay results taken from US20240239788A1, “SMALL MOLECULE INHIBITORS OF KRAS G12D MUTANT” (Merck Sharp & Dohme LLC, priority 2021, published 2024).
Where two headings read alike, the source gives them in different places.

Experiments:
[1] = system: AsPC-1 cells containing homozygous KRAS-G12D activating mutation; assay: Cellular phospho-ERK assay (Examples 1a-106); assay type: cell-based; conditions: AsPC-1 cells, 2 hours, ratio of p-Erk vs total Erk, read-out: IC50 (nM) pERK (Cell)
From the text: 5% CO? overnight. […] Assay plates were read on a EnVision Multimode Plate Reader (PerkinElmer) and the ratio of p-Erk vs total Erk in each well was used as the final readout.

[2] = target: KRAS G12D / Ras binding domain of C-RAF (Homo sapiens (Human), UniProt P01116, G12D); assay: RAS:RAF-RBD binding assay (cRaf), TR-FRET; conditions: biotinylated KRAS G12D, GST-C-RAF RBD
Chain of KRAS G12D / Ras binding domain of C-RAF (P01116 other isoform, or with tags, fused parts or gaps G12D (already in the parent)): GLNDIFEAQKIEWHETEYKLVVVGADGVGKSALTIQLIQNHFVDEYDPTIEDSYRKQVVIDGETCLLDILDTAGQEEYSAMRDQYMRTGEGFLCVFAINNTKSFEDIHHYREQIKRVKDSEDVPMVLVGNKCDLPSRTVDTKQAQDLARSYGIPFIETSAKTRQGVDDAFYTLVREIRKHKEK
Experimental: Compounds are added to KRAS and then after a 30-minute incubation time the RAF-RBD and detection antibodies are added. Small molecule inhibitors that block the interaction of c-RAF-RBD prevent generation of a TR-FRET signal.
Biotinylated KRAS G12D protein is diluted to 20 nM in assay buffer (20 mM HEPES pH 7.5, 150 mM sodium chloride, 10 mM magnesium chloride, and 0.01% Tween20).
Each test compound (10 mM stock in DMSO) is diluted in DMSO to make a 10-point, 3-fold dilution series in a 384-well low dead volume microplate (Labcyte, catalog #LP-0200).
Each well of the assay plate receives 5 μL of Biotinylated KRAS G12D assay solution and is incubated at room temperature for 30 minutes. Each well then receives 5 μL of 100 nM GST-C-RAF RBD protein and a 1:100 dilution of both anti-GST-d2 (Cisbio catalog #61GSTDLA) and Streptavidin-Tb cryptate (Cisbio catalog #610SATLA) in assay buffer and the plate is mixed and briefly centrifuged followed by a 60 minute incubation at room temperature.
The apparent effect as a function of compound concentration is fit to a four-parameter logistic equation.

[3] = target: KRAS protein containing G12D mutation (Homo sapiens (Human), UniProt P01116, G12D); assay: SOS-catalyzed nucleotide exchange assay (GNE), TR-FRET; assay type: biochemical; conditions: biotinylated KRAS G12D, SOS and GTP, 60-minute incubation
Chain of KRAS protein containing G12D mutation (P01116 other isoform, or with tags, fused parts or gaps G12D (already in the parent)): as above
Experimental: Compounds are added to this complex and then after a 60-minute incubation time the mixture is treated with SOS and unlabeled GTP. Small molecule inhibitors stabilize the Bodipy-GDP complex whereas the untreated protein rapidly exchanges Bodipy-GDP for unlabeled GTP resulting in reduced TR-FRET signal.
This solution is referred to as biotinylated KRAS G12D stock solution.

Structure (SMILES) | IC50 ([1]; Homo sapiens, ASPC1, 2 h) [nM] | IC50 ([2]; IC50 (nM) (cRaf)) | IC50 [3] [nM] | IC50 [1] [nM] | IC50 ([2]; read-out: IC50 (nM) (cRaf))
Cc1cc(O)cc(-c2c(F)cc3c(N4CC5CCC(C4)N5)nc(OCC4(CN5CCOCC5)CC4)nc3c2F)c1SC(F)(F)F [Example 49, 3-(4-(3,8-diazabicyclo[3.2.1]octan-3-yl)-6,8-difluoro-2-((1-(morpholinomethyl)cyclopropyl)methoxy)quinazolin-7-yl)-5-methyl-4-((trifluoromethyl)thio)phenol] | 4990 | 24700 | 184 | – | –
Nc1ccc2c(F)ccc(-c3c(Cl)cc4c(N5CC6CCC(C5)N6)nc(OCC5(CN6CCOCC6)CC5)nc4c3F)c2n1 [Example 52, 8-(4-(3,8-diazabicyclo[3.2.1]octan-3-yl)-6-chloro-8-fluoro-2-((1-(morpholinomethyl)cyclopropyl)methoxy)quinazolin-7-yl)-5-fluoroquinolin-2-amine] | 2560 | 3820 | 132 | – | –
CN(C)CC1(COc2nc(N3CC4CCC(C3)N4)c3cc(Cl)c(-c4cc(O)c(F)c5ccccc45)c(F)c3n2)CC1 [Example 57, 4-(4-(3,8-diazabicyclo[3.2.1]octan-3-yl)-6-chloro-2-((1-((dimethylamino)methyl)cyclopropyl)methoxy)-8-fluoroquinazolin-7-yl)-1-fluoronaphthalen-2-ol] | 6850 | 31500 | 404 | – | –
Cc1c(Cl)cc2[nH]ncc2c1-c1c(F)cc2c(N3CC4CCC(C3)N4)nc(OCC3(CN(C)C)CC3)nc2c1F [Example 58, 1-(1-(((4-(3,8-diazabicyclo[3.2.1]octan-3-yl)-7-(6-chloro-5-methyl-1H-indazol-4-yl)-6,8-difluoroquinazolin-2-yl)oxy)methyl)cyclopropyl)-N,N-dimethylmethanamine] | 5900 | 45300 | 256 | – | –
Nc1nc2c(-c3c(F)cc4c(N5CC6CCC(C5)N6)nc(OCC5(CN6CC[C@@H](F)C6)CC5)nc4c3F)ccc(F)c2s1 [Example 61] | 7580 | 3350 | 38.7 | – | –
Nc1nc2c(-c3c(Cl)cc4c(N5CC6CCC(C5)N6)nc(OCC5(CN6CCOCC6)CC5)nc4c3F)ccc(F)c2s1 [Example 62, 4-(4-(3,8-diazabicyclo[3.2.1]octan-3-yl)-6-chloro-8-fluoro-2-((1-(morpholinomethyl)cyclopropyl)methoxy)quinazolin-7-yl)-7-fluorobenzo[d]thiazol-2-amine] | 1860 | 334 | 3.83 | – | –
Cc1cc2[nH]ncc2c(-c2c(F)cc3c(N4C[C@H]5CC[C@@H](C4)N5)nc(OCC4(CN(C)C)CC4)nc3c2F)c1Cl [Example 65, 1-(1-(((4-((1R,5S)-3,8-diazabicyclo[3.2.1]octan-3-yl)-7-(5-chloro-6-methyl-1H-indazol-4-yl)-6,8-difluoroquinazolin-2-yl)oxy)methyl)cyclopropyl)-N,N-dimethylmethanamine] | 2840 | 45700 | 272 | – | –
Cc1cc2[nH]ncc2c(-c2c(F)cc3c(N4C[C@H]5CC[C@@](C)(C4)N5)nc(OC[C@@H]4C[C@@H](F)CN4C)nc3c2F)c1C(F)(F)F [Example 67, 6,8-difluoro-2-(((2S,4R)-4-fluoro-1-methylpyrrolidin-2-yl)methoxy)-7-(6-methyl-5-(trifluoromethyl)-H-indazol-4-yl)-4-((1S,5R)-1-methyl-3,8-diazabicyclo[3.2.1]octan-3-yl)quinazoline] | 2860 | 4040 | 173 | – | –
C[C@@]12CC(O)[C@@](C)(CN(c3nc(OC[C@@]45CCCN4C[C@H](F)C5)nc4c(F)c(-c5cc(O)cc6cccc(Cl)c56)c(F)cc34)C1)N2 (stereo partly drawn) [Example 106] | – | – | 2.09 | 76.1 | 49.4
C[C@@]12CC[C@@H](CN(c3nc(OCC4(CN5CC[C@@H](F)C5)CC4)nc4c3CCN(c3cccc5cccc(Br)c35)C4)C1)N2 [compound 94, 7-(8-bromonaphthalen-1-yl)-2-((1-(((R)-3-fluoropyrroli-din-1-yl)methyl)cyclopropyl)methoxy)-4-((1S,5R)-1-methyl-3,8-diazabicyclo[3.2.1]octan-3-yl)-5,6,7,8-tetrahydropyrido[3,4-d]pyrimidine] | 8470 | 32900 | 116 | – | –
C#Cc1cccc2cc(O)cc(-c3c(F)cc4c(N5C[C@]6(C)CC[C@H]5CN6)nc(OC[C@@]56CCCN5C[C@H](F)C6)nc4c3F)c12 [compound 104, 4-(6,8-difluoro-2-(((2R,7aS)-2-fluorotetrahydro-1H-pyrrolizin-7a(5H)-yl)methoxy)-4-((1S,4S)-4-methyl-2,5-diazabicyclo[2.2.2]octan-2-yl)quinazolin-7-yl)-5-ethynylnaphthalen-2-ol] | 11.8 | 5.93 | 1.05 | – | –
